Drawing on ChEMBL document CHEMBL3217455, “Peptides: minimal drug surrogates to interrogate and interfere with protein function” (Medchemcomm, 2013), this text covers Kd for 1 molecule.

The experiment concerns the target T1, Rhombotin-2 (Homo sapiens, UniProt P25791).
T1 sequence (P25791 whole entry): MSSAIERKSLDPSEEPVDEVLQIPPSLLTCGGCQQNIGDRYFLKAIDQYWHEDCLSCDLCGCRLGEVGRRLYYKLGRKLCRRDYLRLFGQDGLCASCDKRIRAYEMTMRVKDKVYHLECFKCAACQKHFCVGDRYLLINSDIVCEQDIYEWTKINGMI
The experiment in a line: Binding affinity to GST-tagged LMO2 (unknown origin) by surface plasmon resonance analysis. Background: In SPR one partner is held on a chip, and binding of the other changes the refractive index at the surface.

pKd: −log10 of the molar value. Where a SMILES comes first, the peptide text is derived from it.

By pKd is commonly meant the negative decadic logarithm of the Kd, by convention in mol/L. Low values mean a large Kd, high ones a small Kd.

Molecule `CC[C@H](C)[C@H](NC(=O)[C@@H](NC(=O)[C@H](Cc1cnc[nH]1)NC(=O)[C@H](CC(C)C)NC(=O)[C@H](CCCNC(=N)N)NC(=O)[C@H](CO)NC(=O)[C@H](CCC(N)=O)NC(=O)[C@@H](N)CO)[C@@H](C)O)C(=O)N[C@@H](CC(C)C)C(=O)N[C@@H](CS)C(=O)N[C@@H](Cc1cnc[nH]1)C(=O)N[C@@H](CCC(=O)O)C(=O)N[C@@H](CS)C(=O)N[C@H](C(=O)N[C@H](C(=O)N[C@@H](CO)C(=O)N[C@@H](Cc1ccccc1)C(=O)N[C@@H](CC(C)C)C(=O)N[C@@H](CO)C(=O)N[C@@H](CC(C)C)C(=O)O)[C@@H](C)O)C(C)C` (H-SQSRLHTILCHECVTSFLSL-OH) showed a pKd of 7.54.
